Eleven compounds from patent US20260008787A1, “FUSED RING KRAS INHIBITORS FOR TREATING DISEASE” (BLOSSOMHILL THERAPEUTICS, INC., priority 2022, published 2026) can be followed below.

The structures appear in SMILES notation.

As usually defined, the IC50 is the concentration that gives 50% inhibition. Higher therefore signals weaker potency in that assay.

One assay has as its system SW620 (KRAS G12V). The assay is described as follows: Cell proliferation assay (CellTiter-Glo, 72 hours), SW620. Type of assay: cell-based. The note with it: Homo sapiens, SW-620, 72 h, 384-well, CellTiter-Glo 2.0. As for the experimental part:
(§1) Two thousand KRAS mutant cells per well were seeded in 384-well white plate and then treated with indicated compounds for 72 hours at 37° C. and 5% CO2. Cell proliferation was measured using CellTiter-Glo 2.0 luciferase-based ATP detection assay (Promega, Madison, WI) following the manufacturer's protocol. IC50 values were determined using Prism software (GraphPad Software, San Diego, CA).

In a further assay the test system is AGS (G12D). Kind of assay: Cell proliferation assay (CellTiter-Glo, 72 hours), AGS. Type of assay: cell-based. The note with it: 72 h, 384-well, CellTiter-Glo 2.0. As for the experimental part: as §1
For another assay, the target named is KRAS G12D (Homo sapiens, UniProt P01116, G12D). The assay is described as follows: biochemical.
The next assay deals with GP2D (KRAS G12D). Kind of assay: Cell proliferation assay (CellTiter-Glo, 72 hours), GP2D. Conditions: GP2d, 72 h, 384-well, CellTiter-Glo 2.0. The assay is classed as cell-based. Here is the method:
as §1
In general terms: ATP-based viability assays read luminescence as a measure of living cells.

In a further assay the target is KRAS G12V (Homo sapiens, UniProt P01116, G12V). The assay is described as follows: biochemical.
Chain of KRAS G12V (P01116 1-188 isoform P01116-2 G12V): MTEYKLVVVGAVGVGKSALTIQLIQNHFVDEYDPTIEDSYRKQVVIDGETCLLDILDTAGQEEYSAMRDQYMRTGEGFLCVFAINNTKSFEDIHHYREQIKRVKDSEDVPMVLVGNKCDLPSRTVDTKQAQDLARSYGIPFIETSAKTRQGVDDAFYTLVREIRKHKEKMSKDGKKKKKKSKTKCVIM

Chain of KRAS G12D (P01116 1-188 isoform P01116-2 G12D): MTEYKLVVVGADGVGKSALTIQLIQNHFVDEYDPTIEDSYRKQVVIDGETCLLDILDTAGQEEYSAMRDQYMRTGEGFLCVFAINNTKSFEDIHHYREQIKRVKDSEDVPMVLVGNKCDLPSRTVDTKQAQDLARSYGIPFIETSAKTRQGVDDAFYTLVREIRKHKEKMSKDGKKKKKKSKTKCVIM

On to `C#Cc1c(F)ccc2cc(O)cc(-c3nc4c5c(nc(OC[C@@]67CCCN6C[C@H](F)C7)nc5c3F)N3CC(C#N)CCC3CO4)c12` (stereo partly drawn) [Example 109, 5-(8-ethynyl-7-fluoro-3-hydroxynaphthalen-1-yl)-4-fluoro-2-{[(2R,7aS)-2-fluorotetrahydro-1H-pyrrolizin-7a(5H)-yl]methoxy}-8,8a,9,10,11,12-hexahydro-7-oxa-1,3,6,12a-tetraazabenzo[4,5]cyclohepta[1,2,3-de]naphthalene-11-carbonitrile], for which the IC50 with SW620 (KRAS G12V) was over 3000 nM; in the assay on AGS (G12D), over 3000 nM; on KRAS G12D, 15.9 nM; in the assay with GP2D (KRAS G12D), 2000 nM; at KRAS G12V, 27 nM.
`C#Cc1c(F)ccc2cc(O)cc(-c3nc4c5c(nc(OC[C@@]67CCCN6C[C@H](F)C7)nc5c3F)N3CC(C(N)=O)CCC3CO4)c12` (stereo partly drawn) [Example 110, 5-(8-ethynyl-7-fluoro-3-hydroxynaphthalen-1-yl)-4-fluoro-2-{[(2R,7aS)-2-fluorotetrahydro-1H-pyrrolizin-7a(5H)-yl]methoxy}-8,8a,9,10,11,12-hexahydro-7-oxa-1,3,6,12a-tetraazabenzo[4,5]cyclohepta[1,2,3-de]naphthalene-11-carboxamide]: the IC50 with SW620 (KRAS G12V) was over 3000 nM; in the assay with AGS (G12D) it was over 3000 nM; on KRAS G12D, over 10000 nM; with GP2D (KRAS G12D), over 3000 nM; against KRAS G12V it was over 10000 nM.
On to `CC[C@H]1COc2nc(-c3cc(O)cc4ccc(F)c(Cl)c34)c(F)c3nc(OC[C@@]45CCCN4C[C@H](F)C5)nc(c23)N1C` [Example 111, 5-chloro-4-[(9S)-9-ethyl-4-fluoro-2-{[(2R,7aS)-2-fluorotetrahydro-1H-pyrrolizin-7a(5H)-yl]methoxy}-10-methyl-9,10-dihydro-8H-7-oxa-1,3,6,10-tetraazacyclohepta[1,2,3-de]naphthalen-5-yl]-6-fluoronaphthalen-2-ol], for which the IC50 in the assay on SW620 (KRAS G12V) stood at 499 nM; in the assay with AGS (G12D), 361 nM; against KRAS G12D it was 1.28 nM; in the assay with GP2D (KRAS G12D), 59.7 nM; at KRAS G12V, 1.41 nM.
Take `C#Cc1c(F)ccc2cc(O)cc(-c3nc4c5c(nc(OC[C@@]67CCCN6C[C@H](F)C7)nc5c3F)N3C[C@H](C#N)CC[C@H]3CO4)c12` [Example 118, (5aS,8R)-2-(8-ethynyl-7-fluoro-3-hydroxynaphthalen-1-yl)-1-fluoro-11-(((2R,7aS)-2-fluorotetrahydro-1H-pyrrolizin-7a(5H)-yl)methoxy)-5,5a,6,7,8,9-hexahydro-4-oxa-3,9a,10,12-tetraazabenzo[4,5]cyclohepta[1,2,3-de]naphthalene-8-carbonitrile]: the IC50 was over 3000 nM with SW620 (KRAS G12V); over 3000 nM with AGS (G12D); 52.5 nM on KRAS G12D; over 3000 nM in the assay with GP2D (KRAS G12D); 58.9 nM on KRAS G12V.
With `CCc1c(F)ccc2cc(O)cc(-c3nc4c5c(nc(OC[C@@]67CCCN6C[C@H](F)C7)nc5c3F)N3CCCC(O)C3CO4)c12` (stereo partly drawn) [Example 119, 5-(8-ethyl-7-fluoro-3-hydroxynaphthalen-1-yl)-4-fluoro-2-{[(2R,7aS)-2-fluorotetrahydro-1H-pyrrolizin-7a(5H)-yl]methoxy}-8,8a,9,10,11,12-hexahydro-7-oxa-1,3,6,12a-tetraazabenzo[4,5]cyclohepta[1,2,3-de]naphthalen-9-ol], the IC50 with SW620 (KRAS G12V) came out at 307 nM; with AGS (G12D), 258 nM; against KRAS G12D it was 2.48 nM; in the assay with GP2D (KRAS G12D), 103 nM; against KRAS G12V it was 2.16 nM.
In the case of `C#Cc1c(F)ccc2cc(O)cc(-c3nc4c5c(nc(OC[C@@]67CCCN6C[C@H](F)C7)nc5c3F)N3CCCCC3CC4)c12` (stereo partly drawn) [Example 121, 5-ethynyl-6-fluoro-4-(4-fluoro-2-{[(2R,7aS)-2-fluorotetrahydro-1H-pyrrolizin-7a(5H)-yl]methoxy}-8,8a,9,10,11,12-hexahydro-7H-1,3,6,12a-tetraazabenzo[4,5]cyclohepta[1,2,3-de]naphthalen-5-yl)naphthalen-2-ol], the IC50 in the assay with SW620 (KRAS G12V) was 16.6 nM; in the assay on AGS (G12D), 21.5 nM; against KRAS G12D, 1.74 nM; in the assay on GP2D (KRAS G12D), 3.67 nM; at KRAS G12V it was 1.99 nM.
As to `C#Cc1c(F)ccc2cc(O)cc(-c3nc4c5c(nc(OC[C@@]67CCCN6C[C@H](F)C7)nc5c3F)NCCC4)c12` [Example 122, 5-ethynyl-6-fluoro-4-(4-fluoro-2-{[(2R,7aS)-2-fluorotetrahydro-1H-pyrrolizin-7a(5H)-yl]methoxy}-7,8,9,10-tetrahydro-1,3,6,10-tetraazacyclohepta[1,2,3-de]naphthalen-5-yl)naphthalen-2-ol], the IC50 in the assay on SW620 (KRAS G12V) was 4900 nM; with AGS (G12D), 5490 nM; on KRAS G12D, 14.8 nM; in the assay on GP2D (KRAS G12D), 2410 nM; at KRAS G12V it was 16.9 nM.
The corresponding values for `C#Cc1c(F)ccc2cc(O)cc(-c3nc4c5c(nc(OC[C@@]67CCCN6C[C@H](F)C7)nc5c3F)N[C@@H](C3CCCO3)CO4)c12` (stereo partly drawn) [Example 126, 5-ethynyl-6-fluoro-4-((9R)-4-fluoro-2-(((2R,7aS)-2-fluorotetrahydro-1H-pyrrolizin-7a(5H)-yl)methoxy)-9-(tetrahydrofuran-2-yl)-9,10-dihydro-8H-7-oxa-1,3,6,10-tetraazacyclohepta[de]naphthalen-5-yl)naphthalen-2-ol] are 109 nM, over 3000 nM, 111 nM, over 3000 nM and 30.2 nM.
Turning to `C#Cc1c(F)ccc2cc(O)cc(-c3nc4c5c(nc(OC[C@@]67CCCN6C[C@H](F)C7)nc5c3F)N(CC)[C@@H](C)CO4)c12` [Example 127, 4-[(9S)-10-ethyl-4-fluoro-2-{[(2R,7aS)-2-fluorotetrahydro-1H-pyrrolizin-7a(5H)-yl]methoxy}-9-methyl-9,10-dihydro-8H-7-oxa-1,3,6,10-tetraazacyclohepta[1,2,3-de]naphthalen-5-yl]-5-ethynyl-6-fluoronaphthalen-2-ol], the IC50 in the assay with SW620 (KRAS G12V) turned out to be 9.86 nM; in the assay on AGS (G12D), 8.8 nM; against KRAS G12D, 2.61 nM; in the assay on GP2D (KRAS G12D), 4.54 nM; on KRAS G12V it was 3.2 nM.
For `C#Cc1c(F)ccc2cc(O)cc(-c3nc4c5c(nc(OC[C@@]67CCCN6C[C@H](F)C7)nc5c3F)N3CCC[C@@H](O)[C@H]3CO4)c12` [compound 25, (8aR,9R)-5-(8-ethynyl-7-fluoro-3-hydroxynaphthalen-1-yl)-4-fluoro-2-{[(2R,7aS)-2-fluorotetrahydro-1H-pyrrolizin-7a(5H)-yl]methoxy}-8,8a,9,10,11,12-hexahydro-7-oxa-1,3,6,12a-tetraazabenzo[4,5]cyclohepta[1,2,3-de]naphthalen-9-ol] the same measures were 654 nM, 166 nM, 2.03 nM, 76.4 nM and 2.16 nM.
For the compound `C#Cc1c(F)ccc2cc(O)cc(-c3nc4c5c(nc(OC[C@@]67CCCN6C[C@H](F)C7)nc5c3F)N3CCC[C@H](O)[C@@H]3CO4)c12` [compound 103, (8aS,9S)-5-(8-ethynyl-7-fluoro-3-hydroxynaphthalen-1-yl)-4-fluoro-2-{[(2R,7aS)-2-fluorotetrahydro-1H-pyrrolizin-7a(5H)-yl]methoxy}-8,8a,9,10,11,12-hexahydro-7-oxa-1,3,6,12a-tetraazabenzo[4,5]cyclohepta[1,2,3-de]naphthalen-9-ol], the half-maximal inhibitory concentration (IC50) is over 3000 nM in the assay with SW620 (KRAS G12V); 924 nM with AGS (G12D); 22.4 nM against KRAS G12D; 580 nM with GP2D (KRAS G12D); 15.9 nM at KRAS G12V.
